The target of test [1] is T1, MAGL (Mus musculus, UniProt O35678).
T1 sequence (O35678 1-303): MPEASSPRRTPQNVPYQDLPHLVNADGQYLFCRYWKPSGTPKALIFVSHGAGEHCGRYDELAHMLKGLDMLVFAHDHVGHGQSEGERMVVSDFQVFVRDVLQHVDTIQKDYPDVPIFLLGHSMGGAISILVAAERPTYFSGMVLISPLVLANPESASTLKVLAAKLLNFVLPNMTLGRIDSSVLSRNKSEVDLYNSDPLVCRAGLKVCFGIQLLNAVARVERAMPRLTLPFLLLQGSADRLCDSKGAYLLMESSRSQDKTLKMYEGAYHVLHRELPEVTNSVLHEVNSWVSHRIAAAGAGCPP
Briefly: In vitro competitive activity-based protein profiling, MAGL, mouse. As to conditions: read-out: MAGL % inh. 1 μM (mouse).

The target of test [2] is T2, FAAH (Homo sapiens, UniProt O00519).
T2 sequence (O00519 1-579): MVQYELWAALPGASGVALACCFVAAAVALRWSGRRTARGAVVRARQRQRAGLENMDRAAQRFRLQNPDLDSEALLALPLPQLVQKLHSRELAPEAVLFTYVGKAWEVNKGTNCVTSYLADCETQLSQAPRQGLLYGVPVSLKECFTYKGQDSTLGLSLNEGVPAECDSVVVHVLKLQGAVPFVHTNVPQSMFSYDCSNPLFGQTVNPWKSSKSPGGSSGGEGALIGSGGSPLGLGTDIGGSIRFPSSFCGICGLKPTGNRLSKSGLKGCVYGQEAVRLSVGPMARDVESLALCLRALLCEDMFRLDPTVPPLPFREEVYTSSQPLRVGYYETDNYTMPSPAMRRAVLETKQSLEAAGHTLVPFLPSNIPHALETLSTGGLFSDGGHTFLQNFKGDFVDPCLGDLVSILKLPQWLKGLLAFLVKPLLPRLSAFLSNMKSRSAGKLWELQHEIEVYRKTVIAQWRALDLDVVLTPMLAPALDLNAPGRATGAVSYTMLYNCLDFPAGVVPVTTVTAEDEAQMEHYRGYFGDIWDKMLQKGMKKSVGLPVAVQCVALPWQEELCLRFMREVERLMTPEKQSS
Briefly: In vitro competitive activity-based protein profiling, FAAH, human. As to conditions: for inhibition at 1 µM: read-out: FAAH % inh. 1 μM (human).

Test [3] deals with T3, MAGL (Homo sapiens, UniProt Q99685).
T3 sequence (Q99685 1-303): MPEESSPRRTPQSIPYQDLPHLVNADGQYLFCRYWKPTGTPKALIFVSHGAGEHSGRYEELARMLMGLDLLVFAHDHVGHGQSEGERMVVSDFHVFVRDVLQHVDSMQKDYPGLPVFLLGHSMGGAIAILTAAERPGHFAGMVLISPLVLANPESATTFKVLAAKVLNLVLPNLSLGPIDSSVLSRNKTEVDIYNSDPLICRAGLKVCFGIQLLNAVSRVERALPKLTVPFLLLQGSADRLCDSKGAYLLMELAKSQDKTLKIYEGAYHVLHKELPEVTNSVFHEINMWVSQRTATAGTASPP
Nature of the test: In vitro competitive activity-based protein profiling, MAGL, human. As to conditions: for inhibition at 1 µM: read-out: MAGL % inh. 1 μM (human).

The target in test [4] is T4, FAAH (Mus musculus, UniProt O08914).
T4 sequence (O08914 1-579): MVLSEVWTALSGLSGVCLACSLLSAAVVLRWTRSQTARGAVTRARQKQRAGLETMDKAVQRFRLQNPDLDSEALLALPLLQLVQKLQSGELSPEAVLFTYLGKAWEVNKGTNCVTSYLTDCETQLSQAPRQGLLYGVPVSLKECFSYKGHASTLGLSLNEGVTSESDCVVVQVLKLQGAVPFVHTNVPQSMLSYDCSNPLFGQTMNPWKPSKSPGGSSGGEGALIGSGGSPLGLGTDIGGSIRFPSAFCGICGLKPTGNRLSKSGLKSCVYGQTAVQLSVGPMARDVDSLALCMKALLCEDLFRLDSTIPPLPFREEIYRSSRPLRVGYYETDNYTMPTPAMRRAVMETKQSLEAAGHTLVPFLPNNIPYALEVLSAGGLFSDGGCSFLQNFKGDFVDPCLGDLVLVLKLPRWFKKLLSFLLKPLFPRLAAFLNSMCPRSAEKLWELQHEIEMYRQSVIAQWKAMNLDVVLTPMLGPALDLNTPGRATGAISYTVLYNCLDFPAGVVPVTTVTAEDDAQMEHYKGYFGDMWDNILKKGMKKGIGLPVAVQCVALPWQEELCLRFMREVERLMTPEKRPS
Briefly: In vitro competitive activity-based protein profiling, FAAH, mouse. The note with it: read-out: FAAH % inh. 1 μM (mouse).

Take `O=C(O)c1ccn(C(=O)N2CCN(Cc3cccc(Oc4ncccn4)c3)CC2)n1` [Example 62, 1-(4-(3-(pyrimidin-2-yloxy)benzyl)piper-azine-1-carbonyl)-1H-pyrazole-3-carboxylic acid]: the inhibition at 1 µM in test [1] fell in the range of 0 to 25%; in test [2], 0 to 25%; in test [3] it was 50 to 75%; in test [4], 0 to 25%.

For the molecule `C[C@@H]1CC[C@H](C)N1c1cc(C(F)(F)F)ccc1CN1CCN(C(=O)n2ccc(C(=O)O)n2)CC1` [Example 94, 1-(4-(2-((2R,5S)-2,5-dimethylpyrrolidin-1-yl)-4-(trifluoromethyl)benzyl)piperazine-1-carbonyl)-1H-pyrazole-3-carboxylic acid], the inhibition at 1 µM was over 75% in test [1], 0 to 25% in test [2], over 75% in test [3] and 0 to 25% in test [4].

As to `O=C(O)c1nn(C(=O)N2CC3CN(Cc4cc(Cl)ccc4Cl)CC3C2)cc1C(F)(F)F` (stereo not shown) [Example 146, 1-(5-(2,5-dichlorobenzyl)octa-hydropyrrolo[3,4-c]pyrrole-2-carbonyl)-4-(trifluoromethyl)-1H-pyrazole-3-carboxylic acid], the inhibition at 1 µM is 50 to 75% in test [1], over 75% in test [2], over 75% in test [3] and over 75% in test [4].

For `NC(=O)c1ccn(C(=O)N2CCC3(CCCN3Cc3ccc(C(F)(F)F)cc3N3CCCC3)CC2)n1` [Example 174, 1-(1-(2-(pyrrolidin-1-yl)-4-(trifluoromethyl)benzyl)-1,8-diazaspiro[4.5]decane-8-carbonyl)-1H-pyrazole-3-carboxamide], the inhibition at 1 µM was over 75% in test [1], 0 to 25% in test [2], over 75% in test [3] and 25 to 50% in test [4].

For the molecule `O=C(O)c1nn(C(=O)N2CC3CN(Cc4ccc(-c5cnc6ccccn56)cc4C(F)(F)F)CC3C2)cc1Cl` (stereo not shown) [Example 20, 4-Chloro-1-(5-(4-(imidazo[1,2-a]pyridin-3-yl)-2-(trifluoromethyl)benzyl)octahydropyrrolo[3,4-c]pyrrole-2-carbonyl)-1H-pyrazole-3-carboxylic Acid], the inhibition at 1 µM in test [1], in test [2], in test [3] and in test [4] was over 75% each time. Moreover, the figures for the IC50 in test [2] and in test [3] were 1 to 10 µM and 0.1 to 1 µM, respectively.

Regarding `O=C(O)c1ccn(C(=O)N2CCN(Cc3cc(F)cc(Oc4ccc(Cl)cc4)c3)CC2)n1` [Example 161, 1-(4-(3-(4-chlorophenoxy)-5-fluorobenzyl)pipera-zine-1-carbonyl)-1H-pyrazole-3-carboxylic acid], the inhibition at 1 µM in test [1], in test [2], in test [3] and in test [4] was over 75% throughout.

Take `C#Cc1ccc(CN2CCN(C(=O)n3ccc(C(=O)O)n3)CC2)cc1` [Example 50, 1-(4-(4-ethynylbenzyl)piper-azine-1-carbonyl)-1H-pyrazole-3-carboxylic acid]: the inhibition at 1 µM in test [1] and in test [4] was 0 to 25% each time. Besides, the inhibition at 10 µM in test [2] (read-out: FAAH % inh. (human) at 10 uM) and in test [3] (read-out: MAGL % inh. (human) at 10 uM) was over 75% throughout.

Regarding `O=C(O)c1ccn(C(=O)N2C[C@H]3C[C@H](OCc4cc(F)cc(Cl)c4)C[C@H]3C2)n1` [Example 53, 1-(trans-5-((3-chloro-5-fluorobenzyl)oxy)octahydrocyclopenta [c]pyrrole-2-carbonyl)-1H-pyrazole-3-carboxylic acid], the inhibition at 1 µM in test [1], in test [2], in test [3] and in test [4] was over 75% throughout. The IC50 (commonly the concentration that gives 50% inhibition) in test [2] was in the range of 0.1 to 1 µM.

As for `CN(Cc1ccccc1Cl)[C@H]1C[C@@H]2CN(C(=O)n3cc(Cl)c(C(N)=O)n3)C[C@@H]2C1` [Example 128], the inhibition at 1 µM in test [1], in test [2], in test [3] and in test [4] was over 75% each time.

As for `O=C(O)c1ccn(C(=O)N2CCC3(CCN(Cc4cc(F)cc(C(F)(F)F)c4)C3)CC2)n1` [Example 152, 1-(2-(3-fluoro-5-(trifluoromethyl)benzyl)-2,8-diazaspiro[4.5]decane-8-carbonyl)-1H-pyrazole-3-carboxylic acid], the inhibition at 1 µM in test [1] is over 75%; in test [2], 0 to 25%; in test [3] it was over 75%; in test [4] it was 50 to 75%.

As for `O=C(O)c1ccn(C(=O)N2C[C@H]3C[C@H](OCc4ccccc4Cl)C[C@H]3C2)n1` [Example 15, 1-(trans-5-((2-Chlorobenzyl)oxy)octahydrocyclopenta[c]pyrrole-2-carbonyl)-1H-pyrazole-3-carboxylic Acid], the figures for the inhibition at 1 µM in test [2] and in test [4] were over 75% and 25 to 50%, respectively.

On to `C[C@@H]1CC[C@H](C)N1c1cc(C(F)(F)F)ccc1CN(C)C1(C)CCN(C(=O)n2ccc(C(=O)O)n2)CC1` [Example 160, 1-(4-((2-((2R,5S)-2,5-dimethylpyrrolidin-1-yl)-4-(trifluoromethyl)benzyl)(methyl)amino)-4-methylpiperidine-1-carbonyl)-1H-pyrazole-3-carboxylic acid], for which the inhibition at 1 µM in test [2] and in test [4] was 0 to 25% each time.

As to `NC(=O)c1ccn(C(=O)N2CC3CN(Cc4cccc(C(F)(F)F)c4)CC3C2)n1` (stereo not shown) [Example 208, 1-(5-(3-(trifluoromethyl)benzyl)octahydro-pyrrolo[3,4-c]pyrrole-2-carbonyl)-1H-pyrazole-3-carboxamide], the inhibition at 1 µM in test [1] and in test [4] was over 75% throughout.

In the case of `CN(Cc1ccccc1Cl)[C@@H]1C[C@@H]2CN(C(=O)n3ccc(C(N)=O)n3)C[C@@H]2C1` [Example 206], the inhibition at 1 µM in test [1] and in test [4] was over 75% throughout.

With `C[C@@H]1CC[C@H](C)N1c1cc(C(F)(F)F)ccc1CN1CCCC12CCN(C(=O)n1ccc(C(=O)O)n1)CC2` [Example 80, 1-(1-(2-((2R,5S)-2,5-dimethylpyrrolidin-1-yl)-4-(trifluoromethyl)benzyl)-1,8-diazaspiro[4.5]decane-8-carbonyl)-1H-pyrazole-3-carboxylic acid], the inhibition at 1 µM in test [2] and in test [4] was 0 to 25% throughout.

For `CN(Cc1ccc(C(F)(F)F)cc1)[C@@H]1C[C@@H]2CN(C(=O)n3ccc(C(N)=O)n3)C[C@@H]2C1` [Example 205, 1-(cis-5-(methyl(4-(trifluoromethyl)benzyl)amino)octa-hydrocyclopenta[c]pyrrole-2-carbonyl)-1H-pyrazole-3-carboxamide], the inhibition at 1 µM in test [1] and in test [4] was over 75% in each case.

Values taken from US10266497B2 (ABIDE THERAPEUTICS, INC., priority 2017, dated 2019).
